Results taken from patent US5843908A, “Pradimicins l and fl, and derivatives thereof” (Bristol-Myers Squibb Company, priority 1990, dated 1998).
In brackets after ≈: the same amount, converted by molar mass.

What was measured:
[1] = tested on: A. fumigatus IAM2034; experiment: In vitro antifungal activity, serial agar dilution, Sabouraud dextrose agar (Table 4a); format: cell-based; details: Aspergillus fumigatus, 10^6 CFU/ml, 40-60 hours at 28° C.
Procedure: (§1) Representative compounds of the present invention were tested in vitro against various fungi by serial agar dilution method in either Sabouraud dextrose agar or yeast morphology agar containing 1/15 M phosphate buffer. Thus, approximately 0.003 ml of fungal suspension containing 10^6 -10^7 cells/ml was applied to the surface of agar plates containing the test antibiotic. The minimum inhibitory concentration (MIC) values for the test compounds were recorded after the cultures had been incubated for 40-60 hours at 28° C.
(§2) Medium: Sabouraud dextrose agar

[2] = tested on: Aspergillus fumigatus IAM2530; experiment: as above; format: cell-based; details: 10^6 CFU/ml, 40-60 hours at 28° C.
Procedure: as §1, §2

[3] = tested on: Blastomyces dermatitidis D40; experiment: as above; format: cell-based; details: 10^6 CFU/ml, 40-60 hours at 28° C.
Procedure: as §1, §2

[4] = tested on: C. albicans A9540; experiment: as above; format: cell-based; details: Candida albicans, 10^6 CFU/ml, 40-60 hours at 28° C.
Procedure: as §1, §2

[5] = tested on: C. neoformans IAM4514; experiment: as above; format: cell-based; details: Cryptococcus neoformans, 10^6 CFU/ml, 40-60 hours at 28° C.
Procedure: as §1, §2

[6] = tested on: Candida albicans IAM4888; experiment: as above; format: cell-based; details: 10^6 CFU/ml, 40-60 hours at 28° C.
Procedure: as §1, §2

[7] = tested on: Cryptococcus neoformans D49; experiment: as above; format: cell-based; details: 10^6 CFU/ml, 40-60 hours at 28° C.
Procedure: as §1, §2

[8] = tested on: Fusarium moniliforme A2284; experiment: as above; format: cell-based; details: Fusarium verticillioides, 10^6 CFU/ml, 40-60 hours at 28° C.
Procedure: as §1, §2

[9] = tested on: Mucor spinosus IF05317; experiment: as above; format: cell-based; details: 10^6 CFU/ml, 40-60 hours at 28° C.
Procedure: as §1, §2

[10] = tested on: Petriellidium boydii IF08078; experiment: as above; format: cell-based; details: Scedosporium boydii, 10^6 CFU/ml, 40-60 hours at 28° C.
Procedure: as §1, §2

[11] = tested on: Sporothrix schenckii IF08158; experiment: as above; format: cell-based; details: 10^6 CFU/ml, 40-60 hours at 28° C.
Procedure: as §1, §2

[12] = tested on: T. mentagrophytes #4329; experiment: as above; format: cell-based; details: Trichophyton mentagrophytes, 10^6 CFU/ml, 40-60 hours at 28° C.
Procedure: as §1, §2

[13] = tested on: Trichophyton mentagrophytes D155; experiment: as above; format: cell-based; details: 10^6 CFU/ml, 40-60 hours at 28° C.
Procedure: as §1, §2

[14] = tested on: Aspergillus fumigatus IAM 2034; experiment: In vitro antifungal activity, serial agar dilution, yeast morphology agar (Tables 4b, 4c); format: cell-based; details: IAM2034, 60 h, 1/15 M phosphate buffer, 10^6 cells/ml, 40 hours at 28° C.
Procedure: as §1
(§3) ^1. Determined after incubation for 40 hours at 28° C.
(§4) (Trichophyton mentagrophytes: 60 hours, 28° C.).
(§5) ^2. Inoculum size 10^6 cells/ml (Trichophyton mentagrophytes:
(§6) 10^7 cells/ml) in yeast morphology agar containing 1/15 M phosphate
(§7) (Trichophyton mentaprophytes: 60 hours, 28° C.).

[15] = tested on: Candida albicans 83-2-14 (Juntendo); experiment: as above; format: cell-based; details: 60 h, 1/15 M phosphate buffer, 10^6 cells/ml, 40 hours at 28° C.
Procedure: as §1, §3, §4, §5, §6, §7

[16] = tested on: Candida albicans A9540; experiment: as above; format: cell-based; details: 60 h, 1/15 M phosphate buffer, 10^6 cells/ml, 40 hours at 28° C.
Procedure: as §1, §3, §4, §5, §6, §7

[17] = tested on: Candida albicans ATCC 32354 (B311); experiment: as above; format: cell-based; details: ATCC32354, 60 h, 1/15 M phosphate buffer, 10^6 cells/ml, 40 hours at 28° C.
Procedure: as §1, §3, §4, §5, §6, §7

[18] = tested on: Candida tropicalis 85-8 (Kitasato); experiment: as above; format: cell-based; details: 60 h, 1/15 M phosphate buffer, 10^6 cells/ml, 40 hours at 28° C.
Procedure: as §1, §3, §4, §5, §6, §7

[19] = tested on: Candida tropicalis IAM 10241; experiment: as above; format: cell-based; details: IAM10241, 60 h, Candida tropicalis IAM 10241 ("IAN 10241" in Table 4b), 1/15 M phosphate buffer, 10^6 cells/ml, 40 hours at 28° C.
Procedure: as §1, §3, §4, §5, §6, §7

[20] = tested on: Cryptococcus neoformans D49; experiment: as above; format: cell-based; details: 60 h, 1/15 M phosphate buffer, 10^6 cells/ml, 40 hours at 28° C.
Procedure: as §1, §3, §4, §5, §6, §7

[21] = tested on: Cryptococcus neoformans IAM 4514; experiment: as above; format: cell-based; details: IAM4514, 60 h, 1/15 M phosphate buffer, 10^6 cells/ml, 40 hours at 28° C.
Procedure: as §1, §3, §4, §5, §6, §7

[22] = tested on: Saccharomyces cerevisiae ATCC 9763; experiment: as above; format: cell-based; details: ATCC9763, 60 h, 1/15 M phosphate buffer, 10^6 cells/ml, 40 hours at 28° C.
Procedure: as §1, §3, §4, §5, §6, §7

[23] = tested on: Trichophyton mentagrophytes #4329; experiment: as above; format: cell-based; details: 1/15 M phosphate buffer, 10^7 cells/ml, 60 hours, 28° C.
Procedure: as §1, §3, §4, §5, §6, §7

[24] = tested on: Candida albicans ATCC 38247 (polyene-R); experiment: In vitro antifungal activity, serial agar dilution, yeast morphology agar (Table 4b); format: cell-based; details: ATCC38247, 60 h
Procedure: as §1, §3, §4, §5, §6

[25] = Solubility; format: physicochemical

COc1cc(O)c2c(c1)C(=O)c1c(cc3c(c1O)-c1c(cc(C)c(C(=O)N[C@H](C)C(=O)O)c1O)[C@H](O[C@@H]1O[C@H](C)[C@H](N(C)C)[C@H](O[C@@H]4O[C@H](CO)[C@@H](O)[C@H](O)[C@H]4O)[C@H]1O)[C@H]3O)C2=O [N-Methyl Pradimicin L]
MIC [1]: 6.3 µg/mL (≈ 7.12 µM)
MIC [2]: 6.3 µg/mL (≈ 7.12 µM)
MIC [3]: 6.3 µg/mL (≈ 7.12 µM)
MIC [4]: 12.5 µg/mL (≈ 14.1 µM)
MIC [5]: 6.3 µg/mL (≈ 7.12 µM)
MIC [6]: 12.5 µg/mL (≈ 14.1 µM)
MIC [7]: 6.3 µg/mL (≈ 7.12 µM)
MIC [8]: 12.5 µg/mL (≈ 14.1 µM)
MIC [9]: > 100 µg/mL
MIC [10]: 25 µg/mL (≈ 28.3 µM)
MIC [11]: 1.6 µg/mL (≈ 1.81 µM)
MIC [12]: 25 µg/mL (≈ 28.3 µM)
MIC [13]: 25 µg/mL (≈ 28.3 µM)

CN[C@@H]1[C@H](O[C@@H]2O[C@H](CO)[C@@H](O)[C@H](O)[C@H]2O)[C@@H](O)[C@H](O[C@H]2c3cc(C)c(C(=O)N[C@H](C)C(=O)O)c(O)c3-c3c(cc4c(c3O)C(=O)c3cc(OC)cc(O)c3C4=O)[C@@H]2O)O[C@@H]1C [Pradimicin L, pradimicin L]
MIC [1]: 3.1 µg/mL (≈ 3.56 µM)
MIC [2]: 3.1 µg/mL (≈ 3.56 µM)
MIC [3]: 3.1 µg/mL (≈ 3.56 µM)
MIC [4]: 12.5 µg/mL (≈ 14.4 µM)
MIC [5]: 0.8 µg/mL (≈ 0.919 µM)
MIC [6]: 6.3 µg/mL (≈ 7.23 µM)
MIC [7]: 0.8 µg/mL (≈ 0.919 µM)
MIC [8]: 6.3 µg/mL (≈ 7.23 µM)
MIC [9]: > 100 µg/mL
MIC [10]: 25 µg/mL (≈ 28.7 µM)
MIC [11]: 0.8 µg/mL (≈ 0.919 µM)
MIC [12]: 12.5 µg/mL (≈ 14.4 µM)
MIC [13]: 6.3 µg/mL (≈ 7.23 µM)
MIC [14]: 3.1 µg/mL (≈ 3.56 µM)
MIC [15]: 100 µg/mL (≈ 115 µM)
MIC [16]: 25 µg/mL (≈ 28.7 µM)
MIC [17]: 6.3 µg/mL (≈ 7.23 µM)
MIC [18]: > 100 µg/mL
MIC [19]: 100 µg/mL (≈ 115 µM)
MIC [20]: 1.6 µg/mL (≈ 1.84 µM)
MIC [21]: 0.8 µg/mL (≈ 0.919 µM)
MIC [22]: 6.3 µg/mL (≈ 7.23 µM)
MIC [23]: 3.1 µg/mL (≈ 3.56 µM)
MIC [24]: 3.1 µg/mL (≈ 3.56 µM)
Solubility ([25]; dimethyl sulfoxide, dimethyl-formamide, acidic or alkaline water): Soluble in dimethyl sulfoxide, dimethyl-formamide, and acidic or alkaline water
Solubility ([25]; ethanol, methanol, and water): slightly soluble in ethanol, methanol, and water

COc1cc(O)c2c(c1)C(=O)c1c(cc3c(c1O)-c1c(cc(C)c(C(=O)N[C@H](CO)C(=O)O)c1O)[C@H](O[C@@H]1O[C@H](C)[C@H](N(C)C)[C@H](O[C@@H]4O[C@H](CO)[C@@H](O)[C@H](O)[C@H]4O)[C@H]1O)[C@H]3O)C2=O [N-Methyl Pradimicin FL]
MIC [14]: 6.3 µg/mL (≈ 6.99 µM)
MIC [15]: 6.3 µg/mL (≈ 6.99 µM)
MIC [16]: 6.3 µg/mL (≈ 6.99 µM)
MIC [17]: 6.3 µg/mL (≈ 6.99 µM)
MIC [18]: 12.5 µg/mL (≈ 13.9 µM)
MIC [19]: 12.5 µg/mL (≈ 13.9 µM)
MIC [20]: 6.3 µg/mL (≈ 6.99 µM)
MIC [21]: 6.3 µg/mL (≈ 6.99 µM)
MIC [22]: 3.1 µg/mL (≈ 3.44 µM)
MIC [23]: 6.3 µg/mL (≈ 6.99 µM)

CN[C@@H]1[C@H](O[C@@H]2OC[C@@H](O)[C@H](O)[C@H]2O)[C@@H](O)[C@H](O[C@H]2c3cc(C)c(C(=O)N[C@H](C)C(=O)O)c(O)c3-c3c(cc4c(c3O)C(=O)c3cc(OC)cc(O)c3C4=O)[C@@H]2O)O[C@@H]1C [Pradimicin A, pradimicin A, reference compound]
MIC [1]: 3.1 µg/mL (≈ 3.69 µM)
MIC [2]: 1.6 µg/mL (≈ 1.9 µM)
MIC [3]: 6.3 µg/mL (≈ 7.49 µM)
MIC [4]: 100 µg/mL (≈ 119 µM)
MIC [5]: 1.6 µg/mL (≈ 1.9 µM)
MIC [6]: 6.3 µg/mL (≈ 7.49 µM)
MIC [7]: 1.6 µg/mL (≈ 1.9 µM)
MIC [8]: 6.3 µg/mL (≈ 7.49 µM)
MIC [9]: > 100 µg/mL
MIC [10]: 6.3 µg/mL (≈ 7.49 µM)
MIC [11]: 1.6 µg/mL (≈ 1.9 µM)
MIC [12]: 6.3 µg/mL (≈ 7.49 µM)
MIC [13]: 1.6 µg/mL (≈ 1.9 µM)
MIC [14]: 1.6 µg/mL (≈ 1.9 µM)
MIC [15]: 12.5 µg/mL (≈ 14.9 µM)
MIC [16]: 12.5 µg/mL (≈ 14.9 µM)
MIC [17]: 6.3 µg/mL (≈ 7.49 µM)
MIC [18]: 12.5 µg/mL (≈ 14.9 µM)
MIC [19]: > 100 µg/mL
MIC [20]: 1.6 µg/mL (≈ 1.9 µM)
MIC [21]: 1.6 µg/mL (≈ 1.9 µM)
MIC [22]: 6.3 µg/mL (≈ 7.49 µM)
MIC [23]: 3.1 µg/mL (≈ 3.69 µM)
MIC [24]: 6.3 µg/mL (≈ 7.49 µM)

CN[C@@H]1[C@H](O[C@@H]2O[C@H](CO)[C@@H](O)[C@H](O)[C@H]2O)[C@@H](O)[C@H](O[C@H]2c3cc(C)c(C(=O)N[C@H](CO)C(=O)O)c(O)c3-c3c(cc4c(c3O)C(=O)c3cc(OC)cc(O)c3C4=O)[C@@H]2O)O[C@@H]1C [Pradimicin FL, pradimicin FL]
MIC [14]: 3.1 µg/mL (≈ 3.5 µM)
MIC [15]: 6.3 µg/mL (≈ 7.1 µM)
MIC [16]: 6.3 µg/mL (≈ 7.1 µM)
MIC [17]: 6.3 µg/mL (≈ 7.1 µM)
MIC [18]: 6.3 µg/mL (≈ 7.1 µM)
MIC [19]: 6.3 µg/mL (≈ 7.1 µM)
MIC [20]: 3.1 µg/mL (≈ 3.5 µM)
MIC [21]: 1.6 µg/mL (≈ 1.8 µM)
MIC [22]: 3.1 µg/mL (≈ 3.5 µM)
MIC [23]: 3.1 µg/mL (≈ 3.5 µM)
MIC [24]: 3.1 µg/mL (≈ 3.5 µM)
